Holding throughout (assay): Bliss interaction score (quartile over a dose matrix) (fitness difference); higher = more antagonism (negative = synergy)
In one test the test system is B. subtilis 168. The method in brief: (§1)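 The Bliss score is observed fitness minus expected fitness, where the expected value is the product of single-drug fitness values inferred from combination data. Fitness is OD595 at entry into stationary phase normalised to the plate's robust no-drug mean and capped at 1. Scores are reported as quartiles spanning technical, biological and donor/recipient replicates.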

The subject of another test is S. aureus DSM 20231. An outline of the steps: as §1
A further test concerns S. aureus Newman. The method in brief:
as §1

A further test concerns S. pneumoniae D39V. The method in brief:
as §1

Molecules are shown by their SMILES.
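Note: first quartile when negative (synergy) and third quartile when positive (antagonism).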

For the compound `CC(=O)OC[C@H]1O[C@@H]([S-])[C@H](OC(C)=O)[C@@H](OC(C)=O)[C@@H]1OC(C)=O.CCP(CC)CC.[Au+]` [Auranofin] + C1=CC(=CC(=C1)Cl)NN=C(C#N)C#N [CCCP], the Bliss interaction score in the test with B. subtilis 168 was determined as 0.0372; with S. aureus DSM 20231, 0.0194; in the test with S. aureus Newman, 0.0798; in the test with S. pneumoniae D39V, 0.0425.
For `CC(=O)OC[C@H]1O[C@@H]([S-])[C@H](OC(C)=O)[C@@H](OC(C)=O)[C@@H]1OC(C)=O.CCP(CC)CC.[Au+]` [Auranofin] + C/C(=C\C(=O)OCCCCCCCCC(=O)O)C[C@@H]1OC[C@H](C[C@@H]2O[C@H]2[C@@H](C)[C@H](C)O)[C@@H](O)[C@H]1O [Pseudomonic acid], the Bliss interaction score is 0.0268 in the test on B. subtilis 168, 0.0133 in the test on S. aureus DSM 20231, 0.0254 in the test with S. aureus Newman and 0.081 in the test with S. pneumoniae D39V.
As for `CC(=O)OC[C@H]1O[C@@H]([S-])[C@H](OC(C)=O)[C@@H](OC(C)=O)[C@@H]1OC(C)=O.CCP(CC)CC.[Au+]` [Auranofin] + CC1(C)S[C@@H]2[C@H](NC(=O)Cc3ccccc3)C(=O)N2[C@H]1C(=O)O [PenicillinG], the Bliss interaction score with B. subtilis 168 was -0.0513; with S. aureus DSM 20231 it was 0.0414; in the test on S. aureus Newman, -0.0443; in the test with S. pneumoniae D39V it was 0.0454.
As for `CC(=O)OC[C@H]1O[C@@H]([S-])[C@H](OC(C)=O)[C@@H](OC(C)=O)[C@@H]1OC(C)=O.CCP(CC)CC.[Au+]` [Auranofin] + CC1=C(C(=O)O)N2C(=O)[C@@H](NC(=O)[C@H](N)c3ccccc3)[C@H]2SC1 [Cephalexin], the Bliss interaction score is -0.0587 with B. subtilis 168, -0.0272 with S. aureus DSM 20231, -0.0291 in the test on S. aureus Newman and -0.101 in the test with S. pneumoniae D39V.
The like results for `CC(=O)OC[C@H]1O[C@@H]([S-])[C@H](OC(C)=O)[C@@H](OC(C)=O)[C@@H]1OC(C)=O.CCP(CC)CC.[Au+]` [Auranofin] + CC1=C\[C@@H](O)CC(=O)Cc2nc(co2)C(=O)N2CCC=C2C(=O)O[C@H](C(C)C)[C@H](C)/C=C/C(=O)NC\C=C\1 [Virginiamycin M1] were, in that order, -0.0329, -0.0753, -0.0212 and 0.0585.
The like results for `CC(=O)OC[C@H]1O[C@@H]([S-])[C@H](OC(C)=O)[C@@H](OC(C)=O)[C@@H]1OC(C)=O.CCP(CC)CC.[Au+]` [Auranofin] + CC(=O)NC[C@H]1CN(c2ccc(N3CCOCC3)c(F)c2)C(=O)O1 [Linezolid] were, in that order, -0.0379, 0.0191, 0.067 and -0.104.
For `CC(=O)OC[C@H]1O[C@@H]([S-])[C@H](OC(C)=O)[C@@H](OC(C)=O)[C@@H]1OC(C)=O.CCP(CC)CC.[Au+]` [Auranofin] + CC(=O)O[C@H]1C[C@@]2(C)[C@@H](C[C@@H](O)[C@H]3[C@@]4(C)CC[C@@H](O)[C@@H](C)[C@@H]4CC[C@@]32C)/C1=C(\CCC=C(C)C)C(=O)O [Fusidic acid], the Bliss interaction score is 0.0389 with B. subtilis 168, 0.019 with S. aureus DSM 20231, 0.0311 with S. aureus Newman and -0.0761 in the test with S. pneumoniae D39V.
Consider `CC(=O)OC[C@H]1O[C@@H]([S-])[C@H](OC(C)=O)[C@@H](OC(C)=O)[C@@H]1OC(C)=O.CCP(CC)CC.[Au+]` [Auranofin] + CC(C1CCC(C(O1)OC2C(CC(C(C2O)OC3C(C(C(CO3)(C)O)NC)O)N)N)N)NC [Gentamicin], for which the Bliss interaction score was -0.0544 with B. subtilis 168 (main component drawn), 0.0359 in the test with S. aureus DSM 20231 (main component drawn), 0.0898 with S. aureus Newman (main component drawn) and -0.0834 in the test with S. pneumoniae D39V (main component drawn).
For `CC(=O)OC[C@H]1O[C@@H]([S-])[C@H](OC(C)=O)[C@@H](OC(C)=O)[C@@H]1OC(C)=O.CCP(CC)CC.[Au+]` [Auranofin] + CCC(C)C1C(=O)NC(=C)C(=O)NC(C(=O)NC(CSCC(C(=O)N1)NC(=O)/C(=C/C)/NC(=O)C(C(C)CC)N)C(=O)NC2C(SCC(NC(=O)CNC(=O)C3CCCN3C2=O)C(=O)NC(CCCCN)C(=O)NC4C(SCC(NC(=O)CNC(=O)C(NC(=O)C(NC(=O)C(NC(=O)CNC4=O)C)CC(C)C)CCSC)C(=O)NC(CC(=O)N)C(=O)NC(CCSC)C(=O)NC(CCCCN)C(=O)NC5C(SCC6C(=O)NC(C(=O)NC(CSC(C(C(=O)N6)NC(=O)C(NC5=O)C)C)C(=O)NC(CO)C(=O)NC(C(C)CC)C(=O)NC(CC7=CN=CN7)C(=O)NC(C(C)C)C(=O)NC(=C)C(=O)NC(CCCCN)C(=O)O)CC8=CN=CN8)C)C)C)CC(C)C [Nisin], the Bliss interaction score is -0.0321 in the test on B. subtilis 168 (main component drawn), -0.0361 with S. aureus DSM 20231 (main component drawn), 0.0274 with S. aureus Newman (main component drawn) and -0.0798 in the test with S. pneumoniae D39V (main component drawn).
Take `CC(=O)OC[C@H]1O[C@@H]([S-])[C@H](OC(C)=O)[C@@H](OC(C)=O)[C@@H]1OC(C)=O.CCP(CC)CC.[Au+]` [Auranofin] + CCCCCCCCCC(=O)N[C@@H]1[C@H]([C@@H]([C@H](O[C@H]1OC2=C3C=C4C=C2OC5=C(C=C(C=C5)[C@H]([C@H]6C(=O)N[C@@H](C7=C(C(=CC(=C7)O)OC8[C@H]([C@H]([C@@H]([C@H](O8)CO)O)O)O)C9=C(C=CC(=C9)[C@H](C(=O)N6)NC(=O)[C@@H]4NC(=O)[C@@H]1C2=CC(=CC(=C2)OC2=C(C=CC(=C2)[C@H](C(=O)N[C@H](CC2=CC(=C(O3)C=C2)Cl)C(=O)N1)N)O)O)O)C(=O)O)O[C@H]1[C@@H]([C@H]([C@@H]([C@H](O1)CO)O)O)NC(=O)C)Cl)CO)O)O [Teicoplanin]: the Bliss interaction score was -0.0433 with B. subtilis 168 (main component drawn), 0.0469 in the test on S. aureus DSM 20231 (main component drawn), 0.0303 in the test on S. aureus Newman (main component drawn) and 0.0761 with S. pneumoniae D39V (main component drawn).
`CC(=O)OC[C@H]1O[C@@H]([S-])[C@H](OC(C)=O)[C@@H](OC(C)=O)[C@@H]1OC(C)=O.CCP(CC)CC.[Au+]` [Auranofin] + CCC[C@@H]1C[C@@H](C(=O)N[C@@H]([C@H]2O[C@H](SC)[C@H](O)[C@@H](O)[C@H]2O)[C@@H](C)O)N(C)C1 [Lincomycin]: the Bliss interaction score with B. subtilis 168 is 0.066; with S. aureus DSM 20231, 0.0235; in the test with S. aureus Newman it was 0.0853; with S. pneumoniae D39V, -0.0496.
On to `CC(=O)OC[C@H]1O[C@@H]([S-])[C@H](OC(C)=O)[C@@H](OC(C)=O)[C@@H]1OC(C)=O.CCP(CC)CC.[Au+]` [Auranofin] + CCC[C@@H]1C[C@@H](C(=O)N[C@@H]([C@H]2O[C@H](SC)[C@H](O)[C@@H](O)[C@H]2O)[C@H](C)Cl)N(C)C1 [Clindamycin], for which the Bliss interaction score amounted to 0.0424 in the test with B. subtilis 168, 0.0307 in the test on S. aureus DSM 20231, 0.0741 in the test with S. aureus Newman and 0.0341 in the test with S. pneumoniae D39V.
For `CC(=O)OC[C@H]1O[C@@H]([S-])[C@H](OC(C)=O)[C@@H](OC(C)=O)[C@@H]1OC(C)=O.CCP(CC)CC.[Au+]` [Auranofin] + CCN(CC)CCOC(=O)c1ccc(N)cc1 [Procaine], in that order: -0.0372, -0.0516, -0.0631 and -0.0391.
Take `CC(=O)OC[C@H]1O[C@@H]([S-])[C@H](OC(C)=O)[C@@H](OC(C)=O)[C@@H]1OC(C)=O.CCP(CC)CC.[Au+]` [Auranofin] + CC[C@H]1OC(=O)[C@H](C)C(=O)[C@H](C)[C@@H](O[C@@H]2O[C@H](C)C[C@H](N(C)C)[C@H]2O)[C@](C)(OC)C[C@@H](C)C(=O)[C@H](C)[C@H]2N(CCCCn3cnc(-c4cccnc4)c3)C(=O)O[C@]12C [Telithromycin]: the Bliss interaction score was -0.0304 in the test on B. subtilis 168, 0.0187 in the test on S. aureus DSM 20231, 0.0309 with S. aureus Newman and 0.0324 in the test on S. pneumoniae D39V.
On to `CC(=O)OC[C@H]1O[C@@H]([S-])[C@H](OC(C)=O)[C@@H](OC(C)=O)[C@@H]1OC(C)=O.CCP(CC)CC.[Au+]` [Auranofin] + CC[C@H]1OC(=O)[C@H](C)[C@@H](O[C@H]2C[C@@](C)(OC)[C@@H](O)[C@H](C)O2)[C@H](C)[C@@H](O[C@@H]2O[C@H](C)C[C@H](N(C)C)[C@H]2O)[C@](C)(O)C[C@@H](C)C(=O)[C@H](C)[C@@H](O)[C@]1(C)O [Erythromycin], for which the Bliss interaction score in the test with B. subtilis 168 turned out to be 0.0564; in the test on S. aureus DSM 20231 it was 0.0169; with S. aureus Newman, 0.0459; in the test on S. pneumoniae D39V it was 0.0643.
`CC(=O)OC[C@H]1O[C@@H]([S-])[C@H](OC(C)=O)[C@@H](OC(C)=O)[C@@H]1OC(C)=O.CCP(CC)CC.[Au+]` [Auranofin] + CC[C@H]1OC(=O)[C@H](C)[C@@H](O[C@H]2C[C@@](C)(OC)[C@@H](O)[C@H](C)O2)[C@H](C)[C@@H](O[C@@H]2O[C@H](C)C[C@H](N(C)C)[C@H]2O)[C@](C)(O)C[C@@H](C)CN(C)[C@H](C)[C@@H](O)[C@]1(C)O [Azithromycin]: the Bliss interaction score in the test on B. subtilis 168 is 0.0589; with S. aureus DSM 20231, 0.0282; in the test on S. aureus Newman, 0.137; with S. pneumoniae D39V, -0.038.

The values are drawn from the supplement of paper PMC10627819.
